The source of these data is ChEMBL document CHEMBL1201862, “PubChem BioAssay data set” (2004).

The structures appear in SMILES notation.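 Cells were grown in 96-well plates and exposed to each compound for 48 hours at five concentrations; endpoints were interpolated linearly between bracketing concentrations, or set to the highest concentration if not reached. GI50 is the concentration that inhibits growth by half.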 The source made the active and inactive calls. Cut-off read from the data, not from the text of the source: active = GI50 up to about 1.1 µM and inactive = higher.

Test systems include LOX IMVI; ACHN; HCC 2998; SNB-75; OVCAR-4; MDA-MB-435; SF-268; SW-620; HCT-116; SK-MEL-5; UO-31; NCI-H460; MDA-MB-231; OVCAR-5; SF-295; SNB-19; HT-29; CAKI-1; M14; NCI-H226.
Assay in all cases: inhibition of tumour cell growth, NCI panel, 48 h

Consider `O=C1N(CN2CCOCC2)CN(CN2CCOCC2)C(=O)N1Cc1ccc(-c2ccc(CN3C(=O)N(CN4CCOCC4)CN(CN4CCOCC4)C3=O)cc2)cc1`, for which the GI50 is 10 µM (inactive) in the test on LOX IMVI; 27.4 µM (inactive) with ACHN; 11 µM (inactive) with HCC 2998; 9.55 µM (inactive) in the test on SNB-75; 14 µM (inactive) in the test on OVCAR-4; 2.63 µM (inactive) with MDA-MB-435. Further, the GI50 is 14.2 µM (inactive) in the test with SF-268; 8.38 µM (inactive) in the test with SW-620; 7.6 µM (inactive) in the test on HCT-116; > 19.7 µM (inactive) in the test with SK-MEL-5; 19.4 µM (inactive) in the test on UO-31; 15.9 µM (inactive) with NCI-H460. In addition, the GI50 in the test with MDA-MB-231 is 26.5 µM (inactive); in the test with OVCAR-5 it was 20.2 µM (inactive); in the test on SF-295, 23.2 µM (inactive); in the test with SNB-19, 10.3 µM (inactive); with HT-29 it was 19.6 µM (inactive); in the test with CAKI-1 it was 14.2 µM (inactive). The GI50 in the test with M14 was 5.53 µM (inactive); in the test with NCI-H226, > 46.2 µM (inactive).
Consider `CCC1(CC)C(=O)NN(C(=O)c2ccccc2)C1=O`, for which the GI50 in the test with LOX IMVI was > 100 µM (inactive); with ACHN, > 100 µM (inactive); with HCC 2998 it was > 100 µM (inactive); in the test with SNB-75 it was 49.4 µM (inactive); in the test with OVCAR-4 it was > 100 µM (inactive); in the test with MDA-MB-435, > 100 µM (inactive). Also, the GI50 in the test with SF-268, in the test on SW-620, in the test with HCT-116, with SK-MEL-5, in the test with UO-31 and in the test with NCI-H460 was > 100 µM (inactive) each time. The GI50 in the test with MDA-MB-231, with OVCAR-5, with SF-295, in the test with SNB-19, in the test on HT-29 and with CAKI-1 was > 100 µM (inactive) in each case. For the same molecule, the GI50 in the test on M14 and with NCI-H226 was > 100 µM (inactive) throughout.
Regarding `COP(=O)(OC)/C(=C/c1cn(C(c2ccccc2)(c2ccccc2)c2ccccc2)cn1)NC=O`, the GI50 with LOX IMVI is 15.9 µM (inactive); in the test with ACHN it was 12.1 µM (inactive); in the test on HCC 2998, 16.7 µM (inactive); in the test on SNB-75, 5.92 µM (inactive); in the test on OVCAR-4 it was 18.2 µM (inactive); with MDA-MB-435, 18.1 µM (inactive). In addition, the GI50 is 14.5 µM (inactive) with SF-268; 26 µM (inactive) in the test on SW-620; 13.8 µM (inactive) with HCT-116; 13.7 µM (inactive) in the test on SK-MEL-5; 12.9 µM (inactive) with UO-31; 16.4 µM (inactive) with NCI-H460. Also, the GI50 with MDA-MB-231 is 16.2 µM (inactive); in the test with OVCAR-5, 20.6 µM (inactive); in the test with SF-295 it was 13.8 µM (inactive); in the test on SNB-19, 35 µM (inactive); in the test on HT-29, 16.4 µM (inactive); in the test on CAKI-1, 20.4 µM (inactive). In addition, the GI50 is 15.1 µM (inactive) in the test with M14 and 29.5 µM (inactive) in the test on NCI-H226.
Regarding `COc1cc2oc(=O)ccc2cc1C1OC(=O)C2OC21C` (stereo not drawn), the GI50 with LOX IMVI, in the test on ACHN, with HCC 2998, with SNB-75, in the test with OVCAR-4 and in the test on MDA-MB-435 was > 100 µM (inactive) in each case. Also, the GI50 in the test with SF-268 was > 100 µM (inactive); in the test on SW-620 it was > 100 µM (inactive); in the test on HCT-116 it was > 100 µM (inactive); with SK-MEL-5, > 100 µM (inactive); with UO-31, 64.9 µM (inactive); with NCI-H460, > 100 µM (inactive). Moreover, the GI50 in the test on MDA-MB-231, in the test on OVCAR-5, in the test on SF-295, with SNB-19, in the test on HT-29 and in the test on CAKI-1 was > 100 µM (inactive) in each case. For the same molecule, the GI50 in the test with M14 and with NCI-H226 was > 100 µM (inactive) throughout.
As to `O=c1[nH]n(Cc2ccccc2Cl)c2ccc([N+](=O)[O-])cc12`, the GI50 in the test on LOX IMVI was > 100 µM (inactive); in the test on ACHN, 33.3 µM (inactive); in the test on HCC 2998, 50.1 µM (inactive); in the test with SNB-75, 47.2 µM (inactive); with OVCAR-4 it was 78.9 µM (inactive); with MDA-MB-435 it was 3.98 µM (inactive). The GI50 was 49.9 µM (inactive) in the test with SF-268; 53.7 µM (inactive) with SW-620; 41.1 µM (inactive) in the test on HCT-116; 12.6 µM (inactive) with SK-MEL-5; 34.3 µM (inactive) with UO-31; 35.6 µM (inactive) in the test on NCI-H460. Besides, the GI50 is 39.4 µM (inactive) in the test on MDA-MB-231; > 100 µM (inactive) in the test on OVCAR-5; 80 µM (inactive) in the test with SNB-19; 72.9 µM (inactive) in the test with HT-29; > 100 µM (inactive) with CAKI-1; > 100 µM (inactive) in the test on M14. For the same molecule, in the test on NCI-H226, the GI50 was 86.9 µM (inactive).
In the case of `Nc1cccc(Nc2nc3ccccc3nc2NS(=O)(=O)c2ccccc2)c1`, the GI50 with LOX IMVI was 22.7 µM (inactive); in the test with ACHN, 27.5 µM (inactive); in the test on HCC 2998, 15.9 µM (inactive); in the test on SNB-75 it was 36.2 µM (inactive); in the test with OVCAR-4 it was 15.6 µM (inactive); in the test on MDA-MB-435, 23.6 µM (inactive). For the same molecule, the GI50 with SF-268 was 55.2 µM (inactive); in the test with SW-620 it was 18.4 µM (inactive); with HCT-116, 17.3 µM (inactive); in the test on SK-MEL-5, 15.4 µM (inactive); in the test on UO-31, 16 µM (inactive); with NCI-H460 it was 22.1 µM (inactive). Also, the GI50 is 14.8 µM (inactive) in the test with MDA-MB-231; 30.3 µM (inactive) with OVCAR-5; 27.5 µM (inactive) in the test with SF-295; 19.5 µM (inactive) in the test on SNB-19; 27.1 µM (inactive) with HT-29; 27 µM (inactive) with CAKI-1. Further, the GI50 with M14 is 26.2 µM (inactive); in the test with NCI-H226 it was 38 µM (inactive).
For the molecule `COc1ccc2nccc(NCCCN3CCN(CCCNc4ccnc5ccc(OC)cc45)CC3)c2c1`, the GI50 was 0.272 µM (active) with LOX IMVI; 1.45 µM (inactive) with ACHN; 0.505 µM (active) with HCC 2998; 0.543 µM (active) in the test with SNB-75; 1.04 µM (active) in the test with OVCAR-4; 0.427 µM (active) with MDA-MB-435. For the same molecule, the GI50 in the test on SF-268 was 0.432 µM (active); in the test with SW-620, 0.11 µM (active); in the test on HCT-116 it was 0.221 µM (active); with SK-MEL-5, 1.06 µM (active); in the test with UO-31, 8.13 µM (inactive); in the test on NCI-H460, 0.296 µM (active). In addition, the GI50 was 0.357 µM (active) in the test with MDA-MB-231; 0.826 µM (active) with OVCAR-5; 0.975 µM (active) in the test on SF-295; 0.927 µM (active) in the test with SNB-19; 0.172 µM (active) with HT-29; 3.69 µM (inactive) in the test on CAKI-1. Besides, the GI50 in the test with M14 was 1.08 µM (active); with NCI-H226, 0.255 µM (active).
For the molecule `CCc1n[nH]c(=O)n1CCCCCCCCCCCCn1c(CC)n[nH]c1=O`, the GI50 is 24.8 µM (inactive) in the test on LOX IMVI; 25.2 µM (inactive) in the test on ACHN; 34.5 µM (inactive) in the test with HCC 2998; 21 µM (inactive) with SNB-75; 20.3 µM (inactive) with OVCAR-4; 23.1 µM (inactive) with MDA-MB-435. For the same molecule, the GI50 with SF-268 is 29.7 µM (inactive); in the test on SW-620, 37.2 µM (inactive); with HCT-116, 27 µM (inactive); with SK-MEL-5, 16.1 µM (inactive); in the test with UO-31 it was 30.7 µM (inactive); in the test with NCI-H460, 26.6 µM (inactive). Further, the GI50 was 28.1 µM (inactive) with MDA-MB-231; 47.1 µM (inactive) in the test on OVCAR-5; 25.1 µM (inactive) with SF-295; 39.7 µM (inactive) in the test on SNB-19; 32.7 µM (inactive) in the test on HT-29; 27.7 µM (inactive) in the test with CAKI-1. The GI50 was 25.9 µM (inactive) in the test with M14 and 36.9 µM (inactive) in the test on NCI-H226.
`CC1OC(OC2C(O)COC(OC3C(C)OC(OC4C(OC(=O)[C@]56CCC(C)(C)C[C@@H]5C5=CCC7[C@@]8(C)C[C@H](O)[C@H](OC9OC(CO)C(O)C(OC%10OC(CO)C(O)C(O)C%10O)C9O)[C@@](C)(CO)[C@@H]8CC[C@@]7(C)[C@]5(C)CC6)OCC(O)C4O)C(O)C3OC3OCC(O)(CO)C3O)C2O)C(O)C(O)C1O` (stereo partly drawn): the GI50 in the test with LOX IMVI was 8.51 µM (inactive); with ACHN, 9.68 µM (inactive); with HCC 2998, 8.09 µM (inactive); in the test with SNB-75, 11.2 µM (inactive); with OVCAR-4, 7.94 µM (inactive); with MDA-MB-435, 11.5 µM (inactive). Also, the GI50 was 10 µM (inactive) in the test on SF-268; 6.43 µM (inactive) in the test on SW-620; 11.2 µM (inactive) with HCT-116; 8.05 µM (inactive) in the test with SK-MEL-5; 3.56 µM (inactive) with UO-31; 12.7 µM (inactive) in the test with NCI-H460. Besides, the GI50 was 8.05 µM (inactive) in the test on MDA-MB-231; 9.02 µM (inactive) in the test on OVCAR-5; 9.66 µM (inactive) in the test with SF-295; 8.89 µM (inactive) with SNB-19; 3.98 µM (inactive) in the test with CAKI-1; 6.15 µM (inactive) with M14. The GI50 with NCI-H226 is 12.3 µM (inactive).
Consider `O=[Se](O)O`, for which the GI50 was 2.76 µM (inactive) in the test on LOX IMVI; 4 µM (inactive) with ACHN; > 20.3 µM (inactive) in the test with HCC 2998; 1.49 µM (inactive) with SNB-75; 7.06 µM (inactive) in the test on OVCAR-4; 3.77 µM (inactive) in the test with MDA-MB-435. Moreover, the GI50 in the test on SF-268 was 1.18 µM (inactive); in the test on SW-620, 12.9 µM (inactive); with HCT-116, 2.36 µM (inactive); in the test with SK-MEL-5, 2.33 µM (inactive); in the test on UO-31, 2.95 µM (inactive); in the test on NCI-H460, 0.762 µM (active). The GI50 in the test on MDA-MB-231 was 1 µM (active); in the test with OVCAR-5 it was 1.95 µM (inactive); in the test on SF-295 it was 0.536 µM (active); in the test with SNB-19, 1.03 µM (active); in the test with HT-29, 3.17 µM (inactive); in the test with CAKI-1 it was 34.2 µM (inactive). Besides, the results for the GI50 in the test on M14 and in the test with NCI-H226 were 3.44 µM (inactive) and 0.828 µM (active), respectively.
